Source: ChEMBL document CHEMBL4196205, “Dihydrochalcone Glucosides from the Subaerial Parts of Thonningia sanguinea and Their in Vitro PTP1B Inhibitory Activities” (J Nat Prod, 2018)

Columns and labels:
[1] = molecular target: T1, Tyrosine-protein phosphatase non-receptor type 1 (Homo sapiens) (UniProt P18031); experiment: Inhibition of recombinant human PTP1B using pNPP as substrate assessed as residual activity at 30 uM after 30 mins by spectrometric method relative to control
T1 sequence (whole entry): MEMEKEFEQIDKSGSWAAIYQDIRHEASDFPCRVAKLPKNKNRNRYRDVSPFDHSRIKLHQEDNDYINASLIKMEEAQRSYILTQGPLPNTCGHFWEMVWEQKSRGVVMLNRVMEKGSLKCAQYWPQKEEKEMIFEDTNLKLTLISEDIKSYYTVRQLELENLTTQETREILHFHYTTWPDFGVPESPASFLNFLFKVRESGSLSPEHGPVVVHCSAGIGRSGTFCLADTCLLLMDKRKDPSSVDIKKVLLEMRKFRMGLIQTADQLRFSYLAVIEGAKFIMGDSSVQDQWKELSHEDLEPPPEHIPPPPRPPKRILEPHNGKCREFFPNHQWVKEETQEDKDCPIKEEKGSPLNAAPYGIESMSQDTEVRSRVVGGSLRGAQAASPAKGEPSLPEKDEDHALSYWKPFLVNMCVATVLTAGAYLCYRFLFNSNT

[2] = molecular target: T2, Tyrosine-protein phosphatase non-receptor type 1 (Homo sapiens, UniProt P18031); experiment: Inhibition of recombinant human PTP1B using pNPP as substrate assessed as residual activity after 30 mins by spectrometric method
T2 sequence (P18031 whole entry): T1 sequence (whole entry)

[3] = molecular target: T1, Tyrosine-protein phosphatase non-receptor type 1 (Homo sapiens); experiment: Inhibition of PTP1B in human HepG2 cells assessed as increase in insulin-stimulated IR tyrosine phosphorylation at Y1150/1151 residues preincubated for 30 mins followed by insulin addition measured after 5 mins by immuno blot method; assay type: cell-based
HepG2 [4] = experiment: Cytotoxicity against human HepG2 cells assessed as decrease in cell viability at > 30 uM after 24 hrs by resazurin dye based assay; conditions: hepg2, 24 h
HepG2 [5] = experiment: Cytotoxicity against human HepG2 cells assessed as decrease in cell viability at > 30 uM after 24 hrs by crystal violet staining based assay; conditions: hepg2, 24 h

Structure (SMILES) | Activity [1] | IC50 [2] | further results
O=C1OC[C@H]2O[C@@H](Oc3cc(O)c(C(=O)CCc4ccccc4)c(O)c3)[C@H](O)[C@@H](O)[C@@H]2OC(=O)c2cc(O)c(O)c(O)c2-c2c1cc(O)c(O)c2O [THONNINGIANIN B] | 28.5% | 21.7 µM | 
O=C1OC[C@H]2O[C@@H](Oc3cc(O)cc(O)c3C(=O)CCc3ccc(O)c(O)c3)[C@H](O)[C@@H](O)[C@@H]2OC(=O)c2cc(O)c(O)c(O)c2-c2c1cc(O)c(O)c2O | 84.4% |  | 
O=C(OC[C@H]1O[C@@H](Oc2cc(O)c(C(=O)CCc3ccccc3)c(O)c2)[C@H](O)[C@@H](O)[C@@H]1O)c1cc(O)c(O)c(O)c1 | 99.4% |  | 
COc1cc(/C=C/CO)ccc1O[C@@H]1O[C@H](CO)[C@@H](O)[C@H](O)[C@H]1O | 99.2% |  | 
COc1cc(C[C@H]2CO[C@H](c3ccc(O)c(OC)c3)[C@H]2CO)ccc1O | 86.1% |  | 
O=C(O[C@@H]1[C@@H](O)[C@H](Oc2cc(O)c(C(=O)CCc3ccccc3)c(O)c2)O[C@@H]2COC(=O)c3cc(O)c(O)c(O)c3-c3c(cc(O)c(O)c3O)C(=O)O[C@@H]12)c1cc(O)c(O)c(O)c1 [THONNINGIANIN A] | 1.9% | 4.4 µM | inhibition [3]: Dose-dependent effect; Activity (HepG2 [4]): Toxic; Activity (HepG2 [5]): Toxic
O=C(OC[C@H]1O[C@@H](Oc2cc(O)cc(O)c2C(=O)CCc2ccc(O)c(O)c2)[C@H](O)[C@@H](O)[C@@H]1O)c1cc(O)c(O)c(O)c1 | 91.7% |  | 
O=C(O[C@@H]1[C@@H](O)[C@H](Oc2cc(O)cc(O)c2C(=O)CCc2ccc(O)cc2)O[C@@H]2COC(=O)c3cc(O)c(O)c(O)c3-c3c(cc(O)c(O)c3O)C(=O)O[C@@H]12)c1cc(O)c(O)c(O)c1 | 20.8% | 19.3 µM | 
O=C(CCc1ccc(O)c(O)c1)c1c(O)cc(O)cc1O[C@@H]1O[C@H](CO)[C@@H](O)[C@H](O)[C@H]1O | 102% |  | 
O=C(CCc1ccccc1)c1c(O)cc(O[C@@H]2O[C@H](CO)[C@@H](O)[C@H](O)[C@H]2O)cc1O | 97.7% |  | 
COc1cc([C@H]2OC[C@H]3[C@@H]2CO[C@@H]3c2ccc(O)c(OC)c2)ccc1O | 98.6% |  | 
O=C(O[C@@H]1[C@@H](O)[C@H](Oc2cc(O)cc(O)c2C(=O)CCc2ccc(O)c(O)c2)O[C@@H]2COC(=O)c3cc(O)c(O)c(O)c3-c3c(cc(O)c(O)c3O)C(=O)O[C@@H]12)c1cc(O)c(O)c(O)c1 | 29.2% | 24.7 µM | 
O=C1OC[C@H]2O[C@@H](Oc3cc(O)c(C(=O)CCc4ccc(O)cc4)c(O)c3)[C@H](O)[C@@H](O)[C@@H]2OC(=O)c2cc(O)c(O)c(O)c2-c2c1cc(O)c(O)c2O | 30.9% | 23.8 µM | 
